Laboratory results reported in US11104648B2, “Pyrazole derivative” (Zhejiang Research Institute of Chemical Industry Co., Ltd., priority 2018, dated 2021).
Like-named read-outs stand apart in the source and are kept apart here.

Experiments:
Format in all cases: in vivo
[1] = system: Tetranychus cinnabarinus Nymphs; assay: Activity assay of Tetranychus cinnabarinus nymphs (spray on broad bean leaves)
Method: According to the solubility of the test compound, the crude drug was dissolved in N, N-dimethylformamide, and then prepared into a test solution of the desired concentration with 1‰ Tween 80 aqueous solution. The content of N,N-dimethylformamide in the solution should not exceed 10%.
The broad bean leaves with petioles were cut and inserted into a small bottle with water. A certain number of brightly colored, active female adult mites were placed, 24h later, adult mites were removed, and leaves with insufficient eggs were removed. When eggs were hatched and grew into nymphs, spray treatment was performed. The experiment was repeated three times, and a blank control was set, and placed to an observation room (26±2° C., humidity 70%˜80%, 16h light per day) for culture. 48 h later, the results were investigated. The nymphs were gently touched during investigation, and if no response, they were regarded as deaths.

[2] = system: Eggs of Tetranychus Cinnabarinus; assay: Activity assay of eggs of Tetranychus cinnabarinus (spray method, ovicidal); settings: Tetranychus cinnabarinus, read-out: ovicidal activity
Method: According to the solubility of the test compound, the crude drug was dissolved in N N-dimethylformamide, and then prepared into a test solution of the desired concentration with 1‰ Tween 80 aqueous solution. The content of N. N-dimethylformamide in the solution should not exceed 10%.
Spray method. The broad bean leaves with petioles were cut and inserted into a bottle with water. A certain number of female mites were placed, 24h later, adult mites were removed, and spray treatment was performed in 24 h. The experiment was repeated three times, and a blank control was set, and placed to an observation room (26±2° C., humidity 70%˜80%, 16h light per day) for culture. When the blank control group was incubated, the results were investigated. The non-incubated ones were used as death for investigation.

[3] = system: adult Tetranychus cinnabarinus; assay: Activity assay of adult Tetranychus cinnabarinus (whole-plant spray on bean seedlings); settings: 48 h, read-out: adult mite-killing activity
Method: According to the solubility of the test compound, the crude drug was dissolved in N, N-dimethlfornamide, and then prepared into a test solution of the desired concentration with 1‰ Tween 80 aqueous solution. The content of N,N-dimethylformamide in the solution should not exceed 10%.
Two euphylla bean seedlings were taken, after inoculated with adult Tetranychus cinnabarinus and the base number was investigated, whole plants were sprayed with a hand-held sprayer. The experiment was repeated three times for each treatment, after treatment, placed in a standard observation room after treatment, to investigate the survival number of mites in 48 hand calculate the death rate.

[4] = 48 h, concentration 2.5 mg/L, read-out: nymph-killing activity
[5] = concentration 5 mg/L, spray, non-incubated eggs counted as dead
[6] = 48 h, read-out: nymph-killing activity
[7] = concentration 2.5 mg/L, 48 h, read-out: nymph-killing activity

CCCC(=O)OC(C)O/C(=C(/C#N)c1ccc(C(C)(C)C)cc1)c1cc(C)nn1C (stereo not drawn) [Compound 28]
pest or weed control at 2.5 µg/mL [1, 4]: ≥ 95%
pest or weed control at 5 µg/mL [2, 5]: ≥ 90%
pest or weed control at 2.5 µg/mL ([3]; concentration 2.5 mg/L): ≥ 90%

Cc1cc(/C(OC(C)OC(=O)C(C)C)=C(\C#N)c2ccc(C(C)(C)C)cc2)n(C)n1 (stereo not drawn) [Compound 29]
pest or weed control at 2.5 µg/mL [1, 4]: ≥ 95%
pest or weed control at 5 µg/mL [2, 5]: ≥ 90%
pest or weed control at 2.5 µg/mL ([3]; concentration 2.5 mg/L): ≥ 90%

Cc1cc(/C(OC(C)OC(=O)C(C)(C)C)=C(\C#N)c2ccc(C(C)(C)C)cc2)n(C)n1 (stereo not drawn) [Compound 30]
pest or weed control at 2.5 µg/mL [1, 4]: ≥ 95%
pest or weed control at 5 µg/mL [2, 5]: ≥ 90%
pest or weed control at 2.5 µg/mL ([3]; concentration 2.5 mg/L): ≥ 90%

CCCCC(=O)OC(C)O/C(=C(/C#N)c1ccc(C(C)(C)C)cc1)c1cc(C)nn1C (stereo not drawn) [Compound 31]
pest or weed control at 2.5 µg/mL [1, 4]: ≥ 95%
pest or weed control at 5 µg/mL [2, 5]: ≥ 90%
pest or weed control at 2.5 µg/mL ([3]; concentration 2.5 mg/L): ≥ 90%

Cc1cc(/C(OC(C)OC(=O)CC(C)C)=C(\C#N)c2ccc(C(C)(C)C)cc2)n(C)n1 (stereo not drawn) [Compound 32]
pest or weed control at 2.5 µg/mL [1, 4]: ≥ 95%
pest or weed control at 5 µg/mL [2, 5]: ≥ 90%
pest or weed control at 2.5 µg/mL ([3]; concentration 2.5 mg/L): ≥ 90%

COCC(=O)OC(C)O/C(=C(/C#N)c1ccc(C(C)(C)C)cc1)c1cc(C)nn1C (stereo not drawn) [Compound 33]
pest or weed control at 2.5 µg/mL [1, 4]: ≥ 95%
pest or weed control at 5 µg/mL [2, 5]: ≥ 90%
pest or weed control at 2.5 µg/mL ([3]; concentration 2.5 mg/L): ≥ 90%

Cc1cc(/C(OC(C)OC(=O)C2CC2)=C(\C#N)c2ccc(C(C)(C)C)cc2)n(C)n1 (stereo not drawn) [Compound 34]
pest or weed control at 2.5 µg/mL [1, 4]: ≥ 95%
pest or weed control at 5 µg/mL [2, 5]: ≥ 90%
pest or weed control at 2.5 µg/mL ([3]; concentration 2.5 mg/L): ≥ 90%

CSCC(=O)OC(C)O/C(=C(/C#N)c1ccc(C(C)(C)C)cc1)c1cc(C)nn1C (stereo not drawn) [Compound 35]
pest or weed control at 2.5 µg/mL [1, 4]: ≥ 95%
pest or weed control at 5 µg/mL [2, 5]: ≥ 90%
pest or weed control at 2.5 µg/mL ([3]; concentration 2.5 mg/L): ≥ 90%

Cc1cc(/C(OC(C)OC(=O)C2CCCCC2)=C(\C#N)c2ccc(C(C)(C)C)cc2)n(C)n1 (stereo not drawn) [Compound 36]
pest or weed control at 2.5 µg/mL [1, 4]: ≥ 95%
pest or weed control at 5 µg/mL [2, 5]: ≥ 90%
pest or weed control at 2.5 µg/mL ([3]; concentration 2.5 mg/L): ≥ 90%

Cc1cc(/C(OC(C)OC(=O)CF)=C(\C#N)c2ccc(C(C)(C)C)cc2)n(C)n1 (stereo not drawn) [Compound 37]
pest or weed control at 2.5 µg/mL [1, 6]: ≥ 95%
pest or weed control at 5 µg/mL [2]: ≥ 90%
pest or weed control at 2.5 µg/mL [3]: ≥ 90%

Cc1cc(/C(OC(C)OC(=O)C(F)(F)F)=C(\C#N)c2ccc(C(C)(C)C)cc2)n(C)n1 (stereo not drawn) [Compound 38]
pest or weed control at 2.5 µg/mL [1, 4]: ≥ 95%
pest or weed control at 5 µg/mL [2, 5]: ≥ 90%
pest or weed control at 2.5 µg/mL ([3]; concentration 2.5 mg/L): ≥ 90%

Cc1cc(/C(OC(C)OC(=O)c2ccccc2)=C(\C#N)c2ccc(C(C)(C)C)cc2)n(C)n1 (stereo not drawn) [Compound 39]
pest or weed control at 2.5 µg/mL [1, 4]: ≥ 95%
pest or weed control at 5 µg/mL [2, 5]: ≥ 90%
pest or weed control at 2.5 µg/mL ([3]; concentration 2.5 mg/L): ≥ 90%

Cc1cc(/C(OC(C)OC(=O)Cc2ccccc2)=C(\C#N)c2ccc(C(C)(C)C)cc2)n(C)n1 (stereo not drawn) [Compound 40]
pest or weed control at 2.5 µg/mL [1, 7]: ≥ 95%
pest or weed control at 5 µg/mL [2, 5]: ≥ 90%
pest or weed control at 2.5 µg/mL ([3]; concentration 2.5 mg/L): ≥ 90%

CCC(C)(C)C(=O)OC(C)O/C(=C(/C#N)c1ccc(C(C)(C)C)cc1)c1cc(C)nn1C (stereo not drawn) [Compound 41]
pest or weed control at 2.5 µg/mL [1, 4]: ≥ 95%
pest or weed control at 5 µg/mL [2, 5]: ≥ 90%
pest or weed control at 2.5 µg/mL ([3]; concentration 2.5 mg/L): ≥ 90%

C=CC(=O)OC(C)O/C(=C(/C#N)c1ccc(C(C)(C)C)cc1)c1cc(C)nn1C (stereo not drawn) [Compound 42]
pest or weed control at 2.5 µg/mL [1, 4]: ≥ 95%
pest or weed control at 5 µg/mL [2, 5]: ≥ 90%
pest or weed control at 2.5 µg/mL ([3]; concentration 2.5 mg/L): ≥ 90%

CC(=O)OCO/C(=C(/C#N)c1ccc(C(C)(C)C)cc1)c1c(Cl)c(C)nn1C [Compound 76]
pest or weed control at 2.5 µg/mL [1, 4]: ≥ 95%
pest or weed control at 5 µg/mL [2, 5]: ≥ 90%
pest or weed control at 2.5 µg/mL ([3]; concentration 2.5 mg/L): ≥ 90%

CCC(=O)OCO/C(=C(/C#N)c1ccc(C(C)(C)C)cc1)c1c(Cl)c(C)nn1C [Compound 77]
pest or weed control at 2.5 µg/mL [1, 4]: ≥ 95%
pest or weed control at 5 µg/mL [2, 5]: ≥ 90%
pest or weed control at 2.5 µg/mL ([3]; concentration 2.5 mg/L): ≥ 90%

CCCC(=O)OCO/C(=C(/C#N)c1ccc(C(C)(C)C)cc1)c1c(Cl)c(C)nn1C [Compound 78]
pest or weed control at 2.5 µg/mL [1, 4]: ≥ 95%
pest or weed control at 5 µg/mL [2, 5]: ≥ 90%
pest or weed control at 2.5 µg/mL ([3]; concentration 2.5 mg/L): ≥ 90%

Cc1nn(C)c(/C(OCOC(=O)C(C)C)=C(\C#N)c2ccc(C(C)(C)C)cc2)c1Cl [Compound 79]
pest or weed control at 2.5 µg/mL [1, 4]: ≥ 95%
pest or weed control at 5 µg/mL [2, 5]: ≥ 90%
pest or weed control at 2.5 µg/mL ([3]; concentration 2.5 mg/L): ≥ 90%

Cc1nn(C)c(/C(OCOC(=O)C(C)(C)C)=C(\C#N)c2ccc(C(C)(C)C)cc2)c1Cl [Compound 80]
pest or weed control at 2.5 µg/mL [1, 4]: ≥ 95%
pest or weed control at 5 µg/mL [2, 5]: ≥ 90%
pest or weed control at 2.5 µg/mL ([3]; concentration 2.5 mg/L): ≥ 90%

CCCCC(=O)OCO/C(=C(/C#N)c1ccc(C(C)(C)C)cc1)c1c(Cl)c(C)nn1C [Compound 81]
pest or weed control at 2.5 µg/mL [1, 4]: ≥ 95%
pest or weed control at 5 µg/mL [2, 5]: ≥ 90%
pest or weed control at 2.5 µg/mL ([3]; concentration 2.5 mg/L): ≥ 90%

Cc1nn(C)c(/C(OCOC(=O)CC(C)C)=C(\C#N)c2ccc(C(C)(C)C)cc2)c1Cl [Compound 82]
pest or weed control at 2.5 µg/mL [1, 4]: ≥ 95%
pest or weed control at 5 µg/mL [2, 5]: ≥ 90%
pest or weed control at 2.5 µg/mL ([3]; concentration 2.5 mg/L): ≥ 90%

COCC(=O)OCO/C(=C(/C#N)c1ccc(C(C)(C)C)cc1)c1c(Cl)c(C)nn1C [Compound 83]
pest or weed control at 2.5 µg/mL [1, 4]: ≥ 95%
pest or weed control at 5 µg/mL [2, 5]: ≥ 90%
pest or weed control at 2.5 µg/mL ([3]; concentration 2.5 mg/L): ≥ 90%

Cc1nn(C)c(/C(OCOC(=O)C2CC2)=C(\C#N)c2ccc(C(C)(C)C)cc2)c1Cl [Compound 84]
pest or weed control at 2.5 µg/mL [1, 4]: ≥ 95%
pest or weed control at 5 µg/mL [2, 5]: ≥ 90%
pest or weed control at 2.5 µg/mL ([3]; concentration 2.5 mg/L): ≥ 90%

CSCC(=O)OCO/C(=C(/C#N)c1ccc(C(C)(C)C)cc1)c1c(Cl)c(C)nn1C [Compound 85]
pest or weed control at 2.5 µg/mL [1, 4]: ≥ 95%
pest or weed control at 5 µg/mL [2, 5]: ≥ 90%
pest or weed control at 2.5 µg/mL ([3]; concentration 2.5 mg/L): ≥ 90%

Cc1nn(C)c(/C(OCOC(=O)C2CCCCC2)=C(\C#N)c2ccc(C(C)(C)C)cc2)c1Cl [Compound 86]
pest or weed control at 2.5 µg/mL [1, 4]: ≥ 95%
pest or weed control at 5 µg/mL [2, 5]: ≥ 90%
pest or weed control at 2.5 µg/mL ([3]; concentration 2.5 mg/L): ≥ 90%

Cc1nn(C)c(/C(OCOC(=O)CF)=C(\C#N)c2ccc(C(C)(C)C)cc2)c1Cl [Compound 87]
pest or weed control at 2.5 µg/mL [1, 6]: ≥ 95%
pest or weed control at 5 µg/mL [2]: ≥ 90%
pest or weed control at 2.5 µg/mL [3]: ≥ 90%

Cc1nn(C)c(/C(OCOC(=O)C(F)(F)F)=C(\C#N)c2ccc(C(C)(C)C)cc2)c1Cl [Compound 88]
pest or weed control at 2.5 µg/mL [1, 4]: ≥ 95%
pest or weed control at 5 µg/mL [2, 5]: ≥ 90%
pest or weed control at 2.5 µg/mL ([3]; concentration 2.5 mg/L): ≥ 90%

Cc1nn(C)c(/C(OCOC(=O)c2ccccc2)=C(\C#N)c2ccc(C(C)(C)C)cc2)c1Cl [Compound 89]
pest or weed control at 2.5 µg/mL [1, 4]: ≥ 95%
pest or weed control at 5 µg/mL [2, 5]: ≥ 90%
pest or weed control at 2.5 µg/mL ([3]; concentration 2.5 mg/L): ≥ 90%

Cc1nn(C)c(/C(OCOC(=O)Cc2ccccc2)=C(\C#N)c2ccc(C(C)(C)C)cc2)c1Cl [Compound 90]
pest or weed control at 2.5 µg/mL [1, 7]: ≥ 95%
pest or weed control at 5 µg/mL [2, 5]: ≥ 90%
pest or weed control at 2.5 µg/mL ([3]; concentration 2.5 mg/L): ≥ 90%

CCC(C)(C)C(=O)OCO/C(=C(/C#N)c1ccc(C(C)(C)C)cc1)c1c(Cl)c(C)nn1C [Compound 91]
pest or weed control at 2.5 µg/mL [1, 4]: ≥ 95%
pest or weed control at 5 µg/mL [2, 5]: ≥ 90%
pest or weed control at 2.5 µg/mL ([3]; concentration 2.5 mg/L): ≥ 90%

C=CC(=O)OCO/C(=C(/C#N)c1ccc(C(C)(C)C)cc1)c1c(Cl)c(C)nn1C [Compound 92]
pest or weed control at 2.5 µg/mL [1, 4]: ≥ 95%
pest or weed control at 5 µg/mL [2, 5]: ≥ 90%
pest or weed control at 2.5 µg/mL ([3]; concentration 2.5 mg/L): ≥ 90%

CC(=O)OC(C)O/C(=C(/C#N)c1ccc(C(C)(C)C)cc1)c1c(Cl)c(C)nn1C (stereo not drawn) [Compound 101]
pest or weed control at 2.5 µg/mL [1, 4]: ≥ 95%
pest or weed control at 5 µg/mL [2, 5]: ≥ 90%
pest or weed control at 2.5 µg/mL ([3]; concentration 2.5 mg/L): ≥ 90%
